The source of these data is patent US9700056B2.

Experiment [1] relates to Sphaerotheca fuliginea. The experiment in a line: Sphaerotheca test (cucumbers)/preventive. The settings on record: evaluated 7 days after inoculation.
Protocol: After the spray coating has dried on, the plants are inoculated with an aqueous spore suspension of Sphaerotheca fuliginea. The plants are then placed in a greenhouse at approximately 23° C. and a relative atmospheric humidity of approximately 70%.
The test is evaluated 7 days after the inoculation.
In experiment [2] the test system is Venturia inaequalis. Nature of the experiment: Venturia test (apples)/preventive. Conditions: Table A, preventive, evaluated 10 days after inoculation.
Protocol: After the spray coating has dried on, the plants are inoculated with an aqueous conidia suspension of the causal agent of apple scab (Venturia inaequalis) and then remain for 1 day in an incubation cabinet at approximately 20° C. and a relative atmospheric humidity of 100%.
The plants are then placed in a greenhouse at approximately 21° C. and a relative atmospheric humidity of approximately 90%.
The test is evaluated 10 days after the inoculation.
The subject of experiment [3] is Alternaria solani. Nature of the experiment: Alternaria test (tomatoes)/preventive. The settings on record: Table C, preventive, application rate 50 ppm a.i., evaluated 3 days after inoculation.
Protocol: After the spray coating has dried on, the plants are inoculated with an aqueous spore suspension of Alternaria solani. The plants are then placed in an incubation cabinet at approximately 20° C. and a relative atmospheric humidity of 100%.
The test is evaluated 3 days after the inoculation.
Experiment [4] relates to Botrytis cinerea. The experiment in a line: Botrytis test (beans)/preventive. Conditions: Table D, preventive, application rate 10 ppm a.i., size of lesions 2 days after inoculation.
Protocol: After the spray coating has dried on, 2 small pieces of agar covered with growth of Botrytis cinerea are placed on each leaf. The inoculated plants are placed in a darkened chamber at 20° C. and a relative atmospheric humidity of 100%.
2 days after the inoculation, the size of the lesions on the leaves is evaluated.
The mark [5] stands for this setting: Table B2, preventive, application rate 2 ppm a.i.
The mark [6] stands for this setting: Table B1, preventive, application rate 100 ppm a.i.

Structures are written as SMILES.

In the case of `CC1COC(Cn2cncn2)(c2ccc(Oc3ccc(Cl)cc3)cc2Cl)O1` (stereo not shown) [F7 difenoconazole, difenoconazole], the “Efficacy in % found” value came out at 0% in experiment [1] (setting [5]) and 20% in experiment [2] (application rate 1 ppm a.i.).
Turning to `CC1(C(=O)Nc2ccc(O)c(Cl)c2Cl)CCCCC1` [F16 fenhexamid, fenhexamid], the “Efficacy in % found” value came out at 33% in experiment [1] (setting [6]), 43% in experiment [3] and 88% in experiment [4].
Regarding `CCCN(CC)CC1COC2(CCC(C(C)(C)C)CC2)O1` (stereo not shown) [F46 spiroxamine, spiroxamine], the “Efficacy in % found” value in experiment [1] (setting [6]) was determined as 38%; in experiment [3] it was 62%.
In the case of `OC(Cc1ccccc1Cl)(Cn1nc[nH]c1=S)C1(Cl)CC1` (stereo not shown) [F41 prothioconazole, prothioconazole], in experiment [1] (setting [5]), the “Efficacy in % found” value worked out at 38%.
Take `CC(C)(C)C(O)(CCc1ccc(Cl)cc1)Cn1cncn1` (stereo not shown) [F47 tebuconazole, tebuconazole]: the “Efficacy in % found” value was determined as 29% in experiment [1] (setting [5]) and 13% in experiment [2] (application rate 2 ppm a.i.).
